Assays:
[1] = molecular target: T1, D2 receptor (long isoform, D2L) (Rattus norvegicus, UniProt P61169); settings: competition for [3H]methylspiperone binding
Procedure: (§1) A 2.4-kb Xba I-Xho I fragment containing the entire coding region and most of the D2 receptor cDNA was excised from the pBluescript clone and ligated into the corresponding restriction sites of the pEUK-C1 vector (Clontech, Palo Alto, Calif.) The resulting plasmid, pEUK-D2L, was then transfected into COS-7 cells using a modified CaPO4 precipitation method (Clontech). The cells were treated with 3 mM sodium butyrate after 48 hr and were harvested after 72 hr.

[2] = molecular target: T1, D2 receptor (long isoform, D2L); assay: biochemical; settings: transfected COS-7 cell membranes
Procedure: as §1

T1 sequence (P61169 whole entry, canonical isoform): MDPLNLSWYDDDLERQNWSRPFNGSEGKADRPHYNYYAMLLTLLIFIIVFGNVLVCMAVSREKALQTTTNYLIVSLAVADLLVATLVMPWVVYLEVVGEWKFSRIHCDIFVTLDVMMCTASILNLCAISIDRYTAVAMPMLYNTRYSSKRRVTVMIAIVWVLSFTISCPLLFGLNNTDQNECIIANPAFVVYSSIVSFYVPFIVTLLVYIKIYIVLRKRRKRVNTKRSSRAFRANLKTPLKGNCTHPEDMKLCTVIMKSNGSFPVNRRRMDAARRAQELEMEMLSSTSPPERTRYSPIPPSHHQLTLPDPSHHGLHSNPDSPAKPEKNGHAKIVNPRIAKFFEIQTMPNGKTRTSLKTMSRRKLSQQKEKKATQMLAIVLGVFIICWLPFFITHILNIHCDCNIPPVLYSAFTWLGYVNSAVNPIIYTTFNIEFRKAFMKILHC

Row | Hill coefficient of competition curve ([1]; transfected COS-7 cell membranes) | Kd ([2]; affinity of [3H]methylspiperone saturation binding, mean ± SEM) | Kd ([2]; calculated KD of [3H]methylspiperone binding (Scatchard), one experiment representative of three (FIG. 2A)) | Structure (SMILES) | effect of guanine nucleotides on competition curve ([1]; data not shown)
1 | ≈ 1 |  |  | NCCc1ccc(O)c(O)c1 [Dopamine] | not significantly affected by guanine nucleotides
2 |  | 0.0621 ± 0.0021 nM | 0.0641 nM | CN1CN(c2ccccc2)C2(CCN(CCCC(=O)c3ccc(F)cc3)CC2)C1=O [[3H]methylspiperone] | 

Source: US5128254A (The United States of America as represented by the …, priority 1989, dated 1992)
